# Experimental data as given in patent publication US8258128B2, “Organic compounds” (Novartis AG, priority 2006, dated 2012).
# Entries after “also recorded” stand apart in the source; their conditions may differ. Read-outs that look alike come from different tables or passages of the source. Marks after values point to notes of the source that are not given here.
# Columns and labels:
# [1] = test system: established Adjuvant-induced arthritis in rats; test: Established adjuvant-induced arthritis in rats (therapeutic dosing schedule); type: in vivo, rat; details: for ED50: Rattus norvegicus, read-out: Estimated ED50
# Source text: Adjuvant arthritis can be treated using two different dosing schedules; either starting at the time of immunization with adjuvant (prophylactic dosing) or from day 15 when the arthritic response is already established (therapeutic dosing). It is more difficult to inhibit adjuvant arthritis with the therapeutic dosing schedule as compared to the prophylactic schedule. Both versions of adjuvant arthritis are, however, extremely sensitive to the effects of both non-selective COX inhibitors and COX 2 selective inhibitors where 70-90% inhibition of swelling can be achieved at appropriate doses. These models may be predictive for some of the processes thought to be relevant in rheumatoid arthritis.
# Method: Female Wistar rats weighing 150-170 g (housed in standard conditions, 5 animals per cage, with food and water ad libitum) are injected i.d. at the base of the tail with 0.1 ml of mineral oil containing 0.6 mg of lyophilized heat-killed Mycobacterium tuberculosis. The rats are treated orally with COMPOUND A or placebo formulation from day 15 to day 22 (therapeutic dosing schedule) or with COMPOUND A from day 0 to day 14 after immunization (prophylactic dosing schedule). At the end of the experiment, the swelling of the tarsal joints is measured by means of a micro-caliper. For the comparison study to Diclofenac both compounds are given from day 15 to day 29 with readouts at day 22 and 29. Percentage inhibition of paw swelling is calculated by reference to placebo treated arthritic animals (0% inhibition) and placebo treated normal animals (100% inhibition). Five animals are used per group. Data are analyzed using Kruskal-Wallis non-parametric ANOVA followed by Dunn's Multiple Comparison test.
# [2] = Tolerability relative to effective dose in chronic disease models (general statement); type: in vivo; details: doses more than 10 times higher than the effective dose in chronic disease models
# [3] = test system: collagen-induced arthritis in the rats; test: Collagen-induced arthritis in the rats, histological evaluation of hind paws; type: in vivo, rat; details: day 11
# Experimental: (§1) Method: For this study, COMPOUND A and COX-inhibitor Diclofenac are dissolved in a solvent containing 5% of glucose (5 ml/kg). Compounds are given orally once a day. Female rats of the WAGxBUF/F1 crossbred strain (weight 130 g) are used. The animals are divided into several groups, one placebo group (N=8), and four treatment groups (each N=7-8). Treatment starts on peak of disease (day 0) and continues for 11 days. Swelling is assessed at regular time intervals by measuring the external thickness of the hind paws in the region of the metatarsals using a micro-caliper. Tissue samples for histological evaluation are obtained at the end of the in vivo experiment, 5 h after the last oral dose of COMPOUND A or placebo on day 11.
# Hind paws from control arthritic rats (vehicle-treated), taken post-mortem at the end of day 11 of the treatment, obtained relatively high histological scorings compared to histological scores of animals treated with COMPOUND A (0.3, 1, 3 and 9 mg/kg) or Diclofenac (1 mg/kg).
# [4] = test system: collagen-induced arthritis in the rats; test: Collagen-induced arthritis in the rats, hind paw swelling; type: in vivo, rat
# Source text: Animal models of RA need to reflect at least some of the features found in human RA (Billingham et al., 1979). Collagen-induced arthritis (CIA) has been proposed to meet these requirements (Durie et al., 1994). Especially the similarity in the joint pathophysiology makes this animal model most attractive for the evaluation of anti-rheumatic drugs (Takeshita et al., 1997). Synovial hyperplasia, which is an integral part of the disease, parallels the migration of leukocytes into the joint space; erosion and destruction of the cartilage surface can also be found (Holmdahl et al., 1985). The rat CIA, originally described by Trentham et al. (1977), was established and extensive studies with CsA were done, including three-dimensional magnetic resonance imaging (MRI) and histology (Beckmann et al., 1995; 1998). Differences in the susceptibility of several rat strains for the development of the disease have been reported (Cremer et al., 1995; Kamada et al., 1997; Knoerzer et al., 1997).
# as §1
# Results shown are means±SEM of groups of each 4-8 animals of paw diameters in mm on day-12 (before the immunization with Type II collagen in incomplete Freund's adjuvant), day 0 (start of treatment) and day 11 (end of treatment).
# The data shown represent the ability of the treatment (COMPOUND A at 4 different increasing doses) to reduce the volume of the hind paw measured at day 2, day 7 and day 11.
# [5] = 0.3 mg/kg/day p.o., 7 day treatment (Table 7)
# [6] = 1 mg/kg/day p.o., 7 day treatment (Table 7)
# [7] = 1.25 mg/kg/day p.o., 7 days treatment, readout day 22 (Table 8)
# [8] = 1.25 mg/kg/day p.o., 14 days treatment, readout day 29 (Table 8)
# [9] = 2.5 mg/kg/day p.o., 7 days treatment, readout day 22 (Table 8)
# [10] = 2.5 mg/kg/day p.o., 14 days treatment, readout day 29 (Table 8)
# [11] = 3 mg/kg/day p.o., 7 day treatment (Table 7)
# [12] = 5 mg/kg/day p.o., 7 days treatment, readout day 22 (Table 8)
smiles,measurement,setting,value
"COC1=Nc2cc(Cl)ccc2/C(=C/C(=O)O)c2sc(Cl)cc21 [COMPOUND A, [2,7-Dichloro-10-methoxy-3-thia-9-aza-benzo[f]azulen-(4Z)-ylidene]-acetic acid]",% inhibition,[1]; [5],15.8 * %
same,Swelling (mm) ± S.D.,[1]; [5],6.79 ± 0.9 mm
same,% inhibition,[1]; [6],39.0 * %
same,Swelling (mm) ± S.D.,[1]; [6],4.92 ± 0.63 mm
same,% inhibition,[1]; [7],51.0 * %
same,Swelling (mm) ± S.D.,[1]; [7],4.22 ± 0.57 mm
same,% inhibition,[1]; [8],60.3 * %
same,Swelling (mm) ± S.D.,[1]; [8],3.06 ± 0.63 mm
same,% inhibition,[1]; [9],60.5 * %
same,Swelling (mm) ± S.D.,[1]; [9],3.40 ± 0.92 mm
same,% inhibition,[1]; [10],62.0 * %
same,Swelling (mm) ± S.D.,[1]; [10],2.93 ± 0.80 mm
same,% inhibition,[1]; [11],45.0 * %
same,Swelling (mm) ± S.D.,[1]; [11],4.41 ± 0.59 mm
same,% inhibition,[1]; [12],65.0 * %
same,Swelling (mm) ± S.D.,[1]; [12],2.94 ± 1.28 mm
same,Swelling (mm) ± S.D.,"[1]; 5 mg/kg/day p.o., 14 days treatment, readout day 29 (Table 8)",2.23 ± 0.66 mm
same,Swelling (mm) ± S.D.,"[1]; 9 mg/kg/day p.o., 7 day treatment (Table 7)",2.84 ± 0.73 mm
same,ED50,"[1]; 336 h, 2 week treatment schedule",< 1.25 mg/kg
same,ED50,"[1]; po, 168 h, p.o., one week treatment schedule",≤ 1.25 mg/kg
same,tolerability,[2],very well tolerated
same,"Bone apposition, effect on histological score",[3]; 0.3 mg/kg/day p.o.,+4%
same,"Cartilage damage, effect on histological score",[3]; 0.3 mg/kg/day p.o.,−6%
same,"Infiltration of cells, effect on histological score",[3]; 0.3 mg/kg/day p.o.,+8%
same,"Loss of PG, effect on histological score",[3]; 0.3 mg/kg/day p.o.,+1%
same,"Bone apposition, effect on histological score",[3]; 1 mg/kg/day p.o.,−28%
same,"Cartilage damage, effect on histological score",[3]; 1 mg/kg/day p.o.,−24%
same,"Infiltration of cells, effect on histological score",[3]; 1 mg/kg/day p.o.,−7%
same,"Loss of PG, effect on histological score",[3]; 1 mg/kg/day p.o.,−13%
same,"Bone apposition, effect on histological score",[3]; 3 mg/kg/day p.o.,−35% *
same,"Cartilage damage, effect on histological score",[3]; 3 mg/kg/day p.o.,−40% *
same,"Infiltration of cells, effect on histological score",[3]; 3 mg/kg/day p.o.,−25%
same,"Loss of PG, effect on histological score",[3]; 3 mg/kg/day p.o.,−28% *
same,"Bone apposition, effect on histological score",[3]; 9 mg/kg/day p.o.,−51% **
same,"Cartilage damage, effect on histological score",[3]; 9 mg/kg/day p.o.,−56% ***
same,"Infiltration of cells, effect on histological score",[3]; 9 mg/kg/day p.o.,−34% **
same,"Loss of PG, effect on histological score",[3]; 9 mg/kg/day p.o.,−40% *
same,"hind paw diameter, mean ± SEM","[4]; 0.3 mg/kg group, Day 0 (start of treatment)",5.406 ± 0.448 mm
same,"hind paw diameter, mean ± SEM","[4]; 0.3 mg/kg group, Day −12 (before immunization)",3.069 ± 0.016 mm
same,"median inhibition of swelling, analysis of the AUC during day 0 to 11",[4]; 0.3 mg/kg per day p.o.,29±9.2%
same,Effect on hind paw swelling,"[4]; 0.3 mg/kg per day p.o., Day 0-11 (AUC)",−29 ± 9.2%
same,Effect on hind paw swelling,"[4]; 0.3 mg/kg per day p.o., Day 2",−33% **
same,Effect on hind paw swelling,"[4]; 0.3 mg/kg per day p.o., Day 7",−31% *
same,Effect on hind paw swelling,"[4]; 0.3 mg/kg per day p.o., Day 11",−20%
same,"hind paw diameter, mean ± SEM","[4]; 0.3 mg/kg per day p.o., Day 11 (end of treatment)",4.417 ± 0.079 mm
same,"hind paw diameter, mean ± SEM","[4]; 1 mg/kg group, Day 0 (start of treatment)",5.350 ± 0.344 mm
same,"hind paw diameter, mean ± SEM","[4]; 1 mg/kg group, Day −12 (before immunization)",3.107 ± 0.046 mm
same,"median inhibition of swelling, analysis of the AUC during day 0 to 11",[4]; 1 mg/kg per day p.o.,37±6.8%
same,Effect on hind paw swelling,"[4]; 1 mg/kg per day p.o., Day 0-11 (AUC)",−37 ± 6.8%
same,Effect on hind paw swelling,"[4]; 1 mg/kg per day p.o., Day 2",−40% **
same,Effect on hind paw swelling,"[4]; 1 mg/kg per day p.o., Day 7",−38% **
same,Effect on hind paw swelling,"[4]; 1 mg/kg per day p.o., Day 11",−47% ***
same,"hind paw diameter, mean ± SEM","[4]; 1 mg/kg per day p.o., Day 11 (end of treatment)",3.983 ± 0.064 mm
same,"hind paw diameter, mean ± SEM","[4]; 3 mg/kg group, Day 0 (start of treatment)",5.379 ± 0.224 mm
same,"hind paw diameter, mean ± SEM","[4]; 3 mg/kg group, Day −12 (before immunization)",3.136 ± 0.026 mm
same,"median inhibition of swelling, analysis of the AUC during day 0 to 11",[4]; 3 mg/kg per day p.o.,51±7.1%
same,Effect on hind paw swelling,"[4]; 3 mg/kg per day p.o., Day 0-11 (AUC)",−51 ± 7.1%
same,Effect on hind paw swelling,"[4]; 3 mg/kg per day p.o., Day 2",−59% ***
same,Effect on hind paw swelling,"[4]; 3 mg/kg per day p.o., Day 7",−47% ***
same,Effect on hind paw swelling,"[4]; 3 mg/kg per day p.o., Day 11",−71% ***
same,"hind paw diameter, mean ± SEM","[4]; 3 mg/kg per day p.o., Day 11 (end of treatment)",3.592 ± 0.085 mm
same,"hind paw diameter, mean ± SEM","[4]; 9 mg/kg group, Day 0 (start of treatment)",5.364 ± 0.231 mm
same,"hind paw diameter, mean ± SEM","[4]; 9 mg/kg group, Day −12 (before immunization)",3.043 ± 0.028 mm
same,"median inhibition of swelling, analysis of the AUC during day 0 to 11",[4]; 9 mg/kg per day p.o.,67±5.4%
same,Effect on hind paw swelling,"[4]; 9 mg/kg per day p.o., Day 0-11 (AUC)",−67 ± 5.4%
same,Effect on hind paw swelling,"[4]; 9 mg/kg per day p.o., Day 2",−69% ***
same,Effect on hind paw swelling,"[4]; 9 mg/kg per day p.o., Day 7",−75% ***
same,Effect on hind paw swelling,"[4]; 9 mg/kg per day p.o., Day 11",−90% ***
same,"hind paw diameter, mean ± SEM","[4]; 9 mg/kg per day p.o., Day 11 (end of treatment)",3.275 ± 0.038 mm
same,detrimental effect on body weight gain,"[4]; 0.3 to 9 mg/kg per day p.o., 11 days",not observed; also recorded: does not interfere with body weight gain
